Several values for one entry are separate records, joined by “and”; a condition that tells them apart may be missing. Identical values can stand only once. Like-named read-outs stand apart in the source and are kept apart here.
Columns and labels:
Intracellular adenosine = assay type: in vivo, rat
Method: Folinic acid (50 mg/kg) was administered intraperitoneally once daily for fourteen days. […] Hearts were removed from animals and flash frozen in liquid nitrogen with 10 s of death. Liver and lungs were removed en bloc and flash frozen with […]. Brain tissue was subsequently dissected.

[1] = Particle size of jet-milled / spray-dried DHEA-S (Malvern Mastersizer X, light microscope); assay type: physicochemical; conditions: double pass through the jet mill
Method: Approximately 1 g sample was passed through the jet mill, once, and approximately 2 g sample were passed through the jet mill twice. […] The resulting solution was sonicated for 3 minutes and appeared fully dispersed. The dispersed solutions were tested on a Malvern Mastersizer X with a small volume sampler (SVS) attachment. One sample of dispersed material was tested 5 times. The median particle size or D (v, 0.5) of unmilled material was 52.56 μm and the % RSD (relative standard deviation) was 7.61 for the 5 values. The D (v, 0.5) for a single pass through the jet mill was 3.90 μm and the % RSD was 1.27, and the D (v, 0.5) from a double pass through the jet mill […] and the % RSD was 3.10.
The solution was spray-dried with a B-191 Mini Spray-Drier (Buchi, Flawil, Switzerland) with an inlet temperature of 55° C., outlet temperature of 40° C., at 100% aspirator, at 10% pump, nitrogen flow at 40 mbar and spray flow at 600 units. The spray-dried product was suspended in hexane and Span85 surfactant added to reduce agglomeration. The dispersions were sonicated with cooling for 3-5 minutes for complete dispersion and the dispersed solutions tested on a Malvern Mastersizer X with a Small Volume Sampler (SVS) attachment. […] Visual examination by light microscope of the dispersions of each batch confirmed that spray drying produced small respirable size particles. […]

HT-29 SF cells [2] = test: Reversal of DHEA-mediated growth inhibition; assay type: cell-based, human; conditions: 25 μM DHEA, 48 hours of treatment
HT-29 SF cells [3] = test: Reversal of DHEA effect on cell cycle; assay type: cell-based, human; conditions: 25 FM DHEA
Solubility of DHEA-S = assay type: physicochemical
Excerpt: Inhalation of pure water can produce a cough stimulus. […] The temperature effect is weaker at high NaCl concentrations.

HT-29 SF cells [4] = test: DHEA effect on cell cycle (flow cytometry); assay type: cell-based, human; conditions: 25-200 μM, 24-72 hours
Method: Cells were plated at 10^5/60-mm dish in duplicate. […] Cultures were trypsinized following 0, 24, 48, or 74 hours and fixed and stained using a modification of a procedure of Bauer et al., Cancer Res. 46, 3173-3178 (1986). Briefly, cells were collected by centrifugation and resuspended in cold phosphate-buffered saline. Cells were fixed in 70% ethanol, washed, and resuspended in phosphate-buffered saline.
After 24, 48, and 72 hours, cells were harvested, fixed in ethanol, and stained with propidium iodide, and the DNA content/cell was determined by flow cytometric analysis. The percentage of cells in G1, S, and G2M phases was calculated using the Cellfit cell cycle analysis program. S phase is marked by a quadrangle for clarity. Representative histograms from duplicate determinations are shown. The experiment was repeated three times.

HT-29 SF cells [5] = test: DHEA effect on cell growth; conditions: 12.5-200 μM, 24-72 hours
Method: Cell cultures, HT-29 SF cells, which represent a subline of HY-29 cells (ATCC, Rockville, Md.) and are adapted for growth in completely defined serum-free PC-1 medium (Ventrex, Portland, Me.), were obtained. Stock cultures were maintained in this medium at 37° C. (in a humidified atmosphere containing 5% CO2).

[6] = Physicochemical testing of DHEA-S dihydrate before and after micronization; conditions: for Water: Karl Fischer
Method: Surface area is determined using five point BET analyses are performed with nitrogen as the adsorbing gas (P/Po=0.05 to 0.30) using a Micromeritics TriStar surface area analyzer. Particle size distributions are measured by laser diffraction using a Micromeritics Saturn Digisizer where the particles are suspended in mineral oil with sodium dioctyl sodium sulfosuccinate as a dispersing agent. Drug substance water content is measured by Karl Fischer titration (Schott Titroline KF). Pure water is used as the standard and all relative standard deviations for triplicates are less than 1%. Powder is added directly to the titration media.

[7] = Short-term solution stability of DHEA-S nebulizer formulation; assay type: physicochemical; conditions: 10 mg/mL in 0.12% NaCl, RT (24-26° C.)
Method: Aliquots of this solution are filled into clear glass vials and stored at RT (24-26° C.) and at 40° C. The samples are checked daily for DHEA-S content, DHEA content, and appearance. For each time point, duplicate samples are withdrawn and diluted from each vial. […] The study is stopped on day three. […] The solution should easily be stable for the day of reconstitution in a clinical trial. The following section describes the aerosol properties of this formulation.

Human ASM cells = test: [3H]-thymidine incorporation (DNA synthesis) in human airway smooth muscle cells; assay type: cell-based; conditions: alone or in combinations
Excerpt: Human ASM cells were obtained from the distal trachea of transplant donors in compliance with the University of Pennsylvania's Institutional Review Board. Distal trachealis was dissected free of connective tissue and enzymatically digested to yield approximately 1×10^4 human ASM cells. […] The cells were scraped and placed on filters which were then counted using a beta counter. All experiments were repeated in a minimum of three human ASM cell lines. All conditions per experiment were run with six replicates.
There are three classes of commonly used anti-asthma medications that alter cAMP concentrations and/or adenosine concentrations. These classes of drugs are: methylxanthines, beta-agonists and phosphodiesterase inhibitors. For each of these drug classes, isobutylmethylxanthine (IBMX) was used as the tool compound to inhibit smooth muscle proliferation.

[8] = COPD patients, background; cited from earlier work

Nc1nc(=O)c2c([nH]1)NCC(CNc1ccc(C(=O)N[C@@H](CCC(=O)O)C(=O)O)cc1)N2C=O (mixture of isomers) [Folinic Acid, Folinic acid]
Effect of folinic acid alone on adenosine levels (Intracellular adenosine; administered alone): increase in adenosine levels for all organs studied | Effect of coadministered folinic acid on steroid-mediated adenosine depletion (Intracellular adenosine; coadministration with DHEA or methyltestosterone): completely abrogated steroid-mediated adenosine depletion

C[C@]12CC[C@H](OS(=O)(=O)[O-])CC1=CC[C@@H]1[C@@H]2CC[C@]2(C)C(=O)CC[C@@H]12.[Na+] [Anhydrous DHEA-S, sodium dehydroepiandrostenone sulfate]
Median particle size D (v, 0.5) [1]: 3.25 ™

CC(C)CCC[C@@H](C)[C@H]1CC[C@H]2[C@@H]3CC=C4C[C@@H](O)CC[C@]4(C)[C@H]3CC[C@]12C [CH, cholesterol]
Effect of supplement on DHEA-induced growth inhibition (HT-29 SF cells [2]): no such effect | Effect of supplement on DHEA-induced reduction of S phase cells (HT-29 SF cells [3]; 48 hours): very little effect | Effect of supplement on DHEA-induced reduction of S phase cells (HT-29 SF cells [3]; 72 hours): no effect

C[C@]12CC[C@H](O)CC1=CC[C@@H]1[C@@H]2CC[C@]2(C)C(=O)CC[C@@H]12 [DHEA, 3β-hydroxyandrost-5-en-17-one]
Effect on tissue adenosine (in words) (Intracellular adenosine; rat, in vivo): multi-organ depletion of adenosine | Solubility in water (in words) (Solubility of DHEA-S; water): insoluble in water | Cell cycle effect (in words) (HT-29 SF cells [4]): produced a G1 block in HT-29 SF cells in a time- and dose-dependent manner | Inhibition of growth (in words) (HT-29 SF cells [5]): time- and dose-dependent inhibition of growth

C[C@]12CC[C@H](OS(=O)(=O)[O-])CC1=CC[C@@H]1[C@@H]2CC[C@]2(C)C(=O)CC[C@@H]12.[Na+] [DHEA-S dihydrate, sodium dehydroepiandrostenone sulfate]
Impurities ([6]; Bulk): No significant peaks | Water ([6]; Bulk): 8.5 % w/w | Impurities ([6]; Micronized): No significant peaks | Water ([6]; Micronized): 8.4 % w/w | Surface area ([6]; Micronized, five point BET): 4.9 m^2/g

C[C@]12CC[C@H](OS(=O)(=O)[O-])CC1=CC[C@@H]1[C@@H]2CC[C@]2(C)C(=O)CC[C@@H]12.[Na+] [DHEA-S, sodium dehydroepiandrostenone sulfate]
Estimated DHEA-S concentration in solution (Solubility of DHEA-S; 15° C., 20 mM Na+, Ksp 1316 mM^2): 27.5 mM and 10.7 mg/mL | Ksp at 15° C. (Solubility of DHEA-S; interpolated versus reciprocal of absolute temperature): 1316 mM^2 | Appearance of solution on storage [7]: a slight precipitate is observed on the third day | Effect on smooth muscle proliferation without EGF stimulation (FIG. 18) (Human ASM cells): neither IBMX nor DHEA-S alone or in combinations inhibits smooth muscle proliferation

C[C@@](O)(CCO)CC(=O)O [MVA, mevalonic acid]
Effect of supplement on DHEA-induced growth inhibition (HT-29 SF cells [2]): partially overcome | Effect of supplement on DHEA-induced reduction of S phase cells (HT-29 SF cells [3]; 48 hours): partially prevented this effect | Effect of supplement on DHEA-induced reduction of S phase cells (HT-29 SF cells [3]; 72 hours): not after 72 hours

C[C@]12CCC(=O)C=C1CC[C@@H]1[C@@H]2CC[C@@]2(C)[C@H]1CC[C@]2(C)O [Methyltestosterone, methyltestosterone]
Effect on tissue adenosine (in words) (Intracellular adenosine; daily for two weeks): multi-organ depletion of adenosine

CC(C)=CCC/C(C)=C/CC/C(C)=C/CC/C=C(\C)CC/C=C(\C)CCC=C(C)C [SQ, squalene]
Effect of supplement on DHEA-induced growth inhibition (HT-29 SF cells [2]): no such effect

Cn1c(=O)c2[nH]cnc2n(C)c1=O [Theophylline, 3,7-dihydro-1,3-dimethyl-1H-purine-2,6-dione]
Serum concentrations required for optimal effects [8]: 15000 to 20000 ng/mL

— patent US20090285899A1, “COMBINATION OF DEHYDROEPIANDROSTERONE OR DEHYDROEPIANDROSTERONE-SULFATE WITH A METHYLXANTHINE DERIVATIVE FOR TREATMENT OF ASTHMA OR CHRONIC OBSTRUCTIVE PULMONARY DISEASE” (priority 2003, published 2009)
